Measurements as given in paper PMC4377982 (Marine Drugs, 2015).

Molecular target: T1, human α7 nicotinic acetylcholine receptor (α7 nAChR) (Homo sapiens, UniProt P36544)
T1 construct: gene CHRNA7; human α7 nAChR transfected in GH4C1 cells
Assay: radioligand competition with on GH4C1 cells; agonism also shown by Ca2+ imaging in Neuro2a cells with PNU120596 (EC50 […])
Assay type: cell-based

T1 sequence (P36544 23-502): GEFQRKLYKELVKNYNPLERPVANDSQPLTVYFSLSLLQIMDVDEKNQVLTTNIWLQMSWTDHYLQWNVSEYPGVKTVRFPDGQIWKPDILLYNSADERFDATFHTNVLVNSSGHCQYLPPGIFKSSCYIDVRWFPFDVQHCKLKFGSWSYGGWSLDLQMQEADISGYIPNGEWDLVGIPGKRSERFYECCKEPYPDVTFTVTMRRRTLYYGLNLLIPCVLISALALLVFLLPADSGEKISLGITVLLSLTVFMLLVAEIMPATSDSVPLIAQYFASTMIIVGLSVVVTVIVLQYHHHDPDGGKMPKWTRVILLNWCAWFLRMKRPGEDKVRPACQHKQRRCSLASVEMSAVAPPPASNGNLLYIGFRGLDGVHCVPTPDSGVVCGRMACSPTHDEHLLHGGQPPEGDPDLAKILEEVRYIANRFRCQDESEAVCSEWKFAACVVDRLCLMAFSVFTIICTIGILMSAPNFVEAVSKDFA

**Q.** For C[N+](C)(C)[C@@H](Cc1c[nH]c2cc(Br)ccc12)C(=O)[O-] [6-BHP, 6-Bromohypaphorine], which IC50 is on record?
**A.** 23 ± 1 µM
